Data reported in publication PMC8769378, “Underlining the Importance of Peripheral Protic Functional Groups to Enhance the Proton Exchange of Gd-Based MRI Contrast Agents” (Inorganic Chemistry, 2021).
“And” between values parts separate entries of the source, which are not always exact repeats. Identical values can stand only once.

Assay: Analysis of 1/T1 ^1H NMRD profiles
Type: physicochemical
Procedure: The relaxometric characterization of the Gd complexes was carried out by recording their ^1H nuclear magnetic relaxation dispersion (NMRD) profiles at 283, 298, and 310 K in the proton Larmor frequency range 0.01–120 MHz, corresponding to magnetic field strengths varying between 2.34 × 10^–4 and 3 T (Figure 2). The shape of the NMRD profiles and their temperature dependence (r1 decreases with increasing temperature) reflect the general behavior of small Gd^III complexes, characterized by a constant r1 value at low fields, a dispersion around 4–6 MHz, and another region at high fields (>20 MHz) where r1 slightly decreases. […] A least-squares fit of the profiles was carried out in terms of the established theory of paramagnetic relaxation expressed by the Solomon–Bloembergen–Morgan[30],[31] and Freed’s[32] equations for the innersphere (IS) and outersphere (OS) proton relaxation mechanisms, respectively (Table 3). Because of the large number of parameters involved in the fitting procedure, some of them were fixed to known or reasonable values: The hydration number q was fixed to 1, and the distance between Gd^III and the protons of the bound water molecule, r, was fixed to 3.0 Å; the distance of closest approach, a, of the outersphere water molecules to Gd^III was set to 4.0 Å, and for the relative diffusion coefficient D, standard values of 1.7, 2.24, and 3.1 × 10^–5 cm^2 s^–1 (283, 298, and 310 K) were used. […] The difference in relaxivity between GdL1 and GdL2 cannot account for the difference in τR since their molecular weight is very similar; therefore, we considered that the pendant propionate moiety of GdL2 allows for the presence of second sphere (SS) water molecules in H-bonding interaction with the carboxylate group at a distance from Gd^III sufficiently short (<4 Å) and with a residence time sufficiently long to be affected by the rotation. […] Therefore, we analyzed the NMRD profiles for GdL2 also considering the SS contribution, expressed in terms of two additional parameters: the number qSS of second sphere water molecules and their rotational correlation time, τR(SS). The average distance from the paramagnetic center was arbitrarily fixed at 3.5 Å, an intermediate value between those of water molecules in the inner (3.0 Å) and outer (4.0 Å) solvation shell.[33] In addition, since GdL1 and GdL2 are structurally related to the recently reported GdHPADO3A-like complexes having a carbonyl group in place of the methyl group present in GdHPDO3A, τM was fixed to that reported for GdHPADO3A at pH 7 (20 ns).[7] The electronic and reorientation parameters reported in Table 3 for GdL1 and GdL2 are in good agreement with those of other GdHPDO3A-like complexes. Finally, considering the contribution of two second sphere water molecules characterized by a rotational correlation time τR(SS) of 30 ps, the contribution of the SS molecules to the relaxivity of GdL2 is about 0.3 mM^–1 s^–1 at 20 MHz and 298 K almost equal to the Δr1 between GdL1 and GdL2.
Proton relaxation measurements (1/T1) and the resulting 1/T1 NMRD profiles were measured on a fast-field cycling (FFC) Stelar SmarTracer relaxometer over a continuum of magnetic field strengths from 0.000 24 to 0.25 T (corresponding to 0.01–10 MHz proton Larmor frequencies). The relaxometer operates under computer control with an absolute uncertainty in 1/T1 of ±1%. […] Furthermore, the real temperature inside the probe head was additionally monitored by a Fluke 52 k/j digital thermometer (Fluke, Zürich, Switzerland). The gadolinium concentration was determined by measuring the bulk magnetic susceptibility shifts of the t-BuOH ^1H NMR signal. Additional data in the 20–120 MHz frequency range were obtained with a high field relaxometer (Stelar) equipped with the HTS-110 3T metrology cryogen-free superconducting magnet. […] The pH-dependent relaxivity measurements of GdL1 and GdL2 complexes were carried out by direct titration of the samples (GdL2, 3.0 < pH < 12.5; GdL1, 4 < pH < 10). […]

Δ^2 (NMRD fit): 8.5 ± 0.2 10^19 s^–2
τv (NMRD fit): 13.7 ± 0.5 ps
τR (NMRD fit, q = 1): 68 ± 2 ps
τR(SS) (determined for qSS = 2 and rSF = 3.5 Å): 30 ps and 30 ± 2 ps
Compound: O=C([O-])CN1CCN(CC(=O)[O-])CCN(CC(O)C(=O)O)CCN(CC(=O)[O-])CC1.[Gd+3] (stereo not shown) [GdL2]
contribution of the second sphere (SS) water molecules to the relaxivity (20 MHz, 298 K, qSS = 2, τR(SS) 30 ps): about 0.3 mM^–1 s^–1
^298r1-60-MHz (298 K, 60 MHz, pH 7.4): 4.6 ± 0.1 mM^–1 s^–1
^310r1-60-MHz (310 K, 60 MHz, pH 7.4): 3.6 ± 0.1 mM^–1 s^–1
